How the values were obtained:
Assay in all cases: combination Emax (second highest fraction inhibited in the dose matrix, 72 h); higher = more inhibition; extreme values may be limits of the assay
[1] = test system: MFH-ino (Other Solid Carcinomas)
Procedure, shortened: (§1)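 Bliss excess equals the observed combination effect minus the expected value EA + EB − EA·EB, where EA and EB are the effects of each agent alone. Combination Emax is the second-highest inhibition within the matrix. Inhibition was scaled from CellTiter-Glo 2.0 luminescence, with 0 set by vehicle wells and 1 by blank wells, after 72 hours of two-drug dosing of cells plated in 1536-well plates.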

[2] = test system: LS-513 (Colorectal Carcinoma)
Procedure, shortened: as §1

NCI-H2595 (Mesothelioma) = test system: NCI-H2595 (Mesothelioma)
Procedure, shortened: as §1

SN12C (Kidney Carcinoma) = test system: SN12C (Kidney Carcinoma)
Procedure, shortened: as §1

[3] = test system: KARPAS-1106P (B-Cell Non-Hodgkin's Lymphoma)
Procedure, shortened: as §1

ES7 (Ewing's Sarcoma) = test system: ES7 (Ewing's Sarcoma)
Procedure, shortened: as §1

[4] = test system: DB (B-Cell Non-Hodgkin's Lymphoma)
Procedure, shortened: as §1

[5] = test system: U-266 (Plasma Cell Myeloma)
Procedure, shortened: as §1

[6] = test system: SW1088 (Low Grade Glioma)
Procedure, shortened: as §1

[7] = test system: MDA-MB-157 (Breast Carcinoma)
Procedure, shortened: as §1

[8] = test system: NCI-H1299 (Non-Small Cell Lung Carcinoma)
Procedure, shortened: as §1

[9] = test system: DOV13 (Ovarian Carcinoma)
Procedure, shortened: as §1

[10] = test system: SW1990 (Pancreatic Carcinoma)
Procedure, shortened: as §1

[11] = test system: KARPAS-620 (Plasma Cell Myeloma)
Procedure, shortened: as §1

[12] = test system: SW1783 (Low Grade Glioma)
Procedure, shortened: as §1

SK-N-FI (Neuroblastoma) = test system: SK-N-FI (Neuroblastoma)
Procedure, shortened: as §1

[13] = test system: NCI-H211 (Small Cell Lung Carcinoma)
Procedure, shortened: as §1

[14] = test system: OCI-AML2 (Acute Myeloid Leukemia)
Procedure, shortened: as §1

[15] = test system: NALM-6 (B-Lymphoblastic Leukemia)
Procedure, shortened: as §1

[16] = test system: IHH-4 (Thyroid Gland Carcinoma)
Procedure, shortened: as §1

| SMILES | combination Emax [1] | combination Emax [2] | combination Emax (NCI-H2595 (Mesothelioma)) | combination Emax (SN12C (Kidney Carcinoma)) | combination Emax [3] | combination Emax (ES7 (Ewing's Sarcoma)) | combination Emax [4] | combination Emax [5] | combination Emax [6] | combination Emax [7] | combination Emax [8] | combination Emax [9] | combination Emax [10] | combination Emax [11] | combination Emax [12] | combination Emax (SK-N-FI (Neuroblastoma)) | combination Emax [13] | combination Emax [14] | combination Emax [15] | combination Emax [16] |
| --- | --- | --- | --- | --- | --- | --- | --- | --- | --- | --- | --- | --- | --- | --- | --- | --- | --- | --- | --- | --- |
| C[C@@H]1COCCN1c1cc(C2([S@](C)(=N)=O)CC2)nc(-c2ccnc3[nH]ccc23)n1 [AZD6738] + Nc1ccn([C@@H]2O[C@H](CO)[C@@H](O)C2(F)F)c(=O)n1 [Gemcitabine] (first compound max 10 µM, 7x7, partner max 0.3 µM) | 0.716 | 0.824 | 0.374 | 0.779 | 0.926 | 0.991 | 0.913 | 0.747 | 0.731 | 0.925 | 0.841 | 0.965 | 0.463 | 0.763 | 0.755 | 0.789 | 0.973 | 1 | 0.974 | 1 |
| CN(CCO)CC[C@H](CSc1ccccc1)Nc1ccc(S(=O)(=O)NC(=O)c2ccc(N3CCC([C@@H](O)c4ccccc4-c4ccc(Cl)cc4)CC3)cc2)cc1S(=O)(=O)C(F)(F)F [AZD4320] + CC(=O)O[C@H]1C(=O)[C@@]2(C)[C@H]([C@H](OC(=O)c3ccccc3)[C@]3(O)C[C@H](OC(=O)[C@H](O)[C@@H](NC(=O)c4ccccc4)c4ccccc4)C(C)=C1C3(C)C)[C@]1(OC(C)=O)CO[C@@H]1C[C@@H]2O [Paclitaxel] (first compound max 1 µM, 7x7, partner max 3 µM) | 0.777 | 0.963 | 0.726 | 0.823 | 0.97 | 1 | 1 | 0.966 | 0.837 | 0.86 | 0.892 | 1 | 0.957 | 1 | 0.875 | 0.739 | 1 | 1 | 1 | 0.999 |
| Cc1nc(-c2cn3c(n2)-c2ccc(-c4cnn(C(C)(C)C(N)=O)c4)cc2OCC3)n(C(C)C)n1 [Taselisib] + O=C(Nc1ccc2[nH]nc(-c3ccncc3)c2c1)[C@@H]1CCN(CC(=O)N2CCN(c3ccc(-c4ncccn4)cc3)CC2)C1 [SCH772984] (first compound max 10 µM, 7x7, partner max 5 µM) | 0.659 | 0.975 | 0.393 | 0.387 | 0.78 | 0.726 | 0.449 | 0.787 | 0.72 | 0.418 | 0.629 | 0.599 | 0.655 | 0.969 | 0.643 | 0.877 | 0.55 | 1 | 0.752 | 0.73 |
| C[C@@H]1COCCN1c1cc(C2([S@](C)(=N)=O)CC2)nc(-c2ccnc3[nH]ccc23)n1 [AZD6738] + C1CC(C1)(C(=O)[O-])C(=O)[O-].N.N.[Pt+2] [Carboplatin] (first compound max 10 µM, 7x7, partner max 10 µM) | 0.468 | 0.727 | 0.275 | 0.222 | 0.658 | 0.777 | 0.435 | 0.316 | 0.602 | 0.889 | 0.508 | 0.818 | 0.422 | 0.399 | 0.447 | 0.601 | 0.61 | 0.951 | 0.924 | 0.773 |
| C[C@@H](Oc1cc(-c2cnn(C3CCNCC3)c2)cnc1N)c1c(Cl)ccc(F)c1Cl [Crizotinib] + Cn1cnc2c(F)c(Nc3ccc(Br)cc3Cl)c(C(=O)NOCCO)cc21 [Selumetinib] (first compound max 10 µM, 7x7, partner max 10 µM) | 0.542 | 1 | 0.292 | 0.244 | 0.953 | 0.818 | 0.751 | 0.624 | 0.596 | 0.243 | 0.574 | 0.647 | 0.158 | 0.941 | 0.194 | 0.809 | 0.943 | 1 | 0.905 | 0.758 |
| C[C@@H](Nc1cc(F)cc(F)c1)c1cc(C(=O)N(C)C)cc2c(=O)cc(N3CCOCC3)oc12 [AZD8186] + C1CN(CCC1(C(=O)N[C@@H](CCO)C2=CC=C(C=C2)Cl)N)C3=NC=NC4=C3C=CN4 [AZD5363] (first compound max 10 µM, 7x7, partner max 10 µM) | 0.348 | 0.534 | 0.24 | 0.149 | 0.755 | 0.509 | 0.0629 | 0.138 | 0.742 | 0.264 | 0.314 | 0.28 | 0.188 | 0.767 | 0.479 | 0.335 | 0.406 | 0.473 | 0.674 | 0.227 |
| C=CCn1c(=O)c2cnc(Nc3ccc(N4CCN(C)CC4)cc3)nc2n1-c1cccc(C(C)(C)O)n1 [AZD1775] + CCc1c2c(nc3ccc(O)cc13)-c1cc3c(c(=O)n1C2)COC(=O)[C@]3(O)CC [SN-38] (first compound max 1 µM, partner max 0.3 µM) | 0.737 | 0.771 | 0.318 | 0.587 | 0.924 | 0.997 | 0.985 | 0.715 | 0.712 | 0.967 | 0.751 | 1 | 0.542 | 0.546 | 0.825 | 0.586 | 0.989 | 1 | 1 | 0.975 |
| O=C(c1cc(Cc2n[nH]c(=O)c3ccccc23)ccc1F)N1CCN(C(=O)C2CC2)CC1 [Olaparib] + CN(CC[C@H](CSC1=CC=CC=C1)NC2=C(C=C(C=C2)S(=O)(=O)NC(=O)C3=CC=C(C=C3)N4CCC(CC4)[C@H](C5=CC=CC=C5C6=CC=C(C=C6)Cl)O)S(=O)(=O)C(F)(F)F)CCO [AZD4320] (first compound max 10 µM, 7x7, partner max 1 µM) | 0.108 | 0.452 | 0.228 | 0.18 | 0.498 | 0.969 | 0.923 | 0.631 | 0.147 | 0.216 | 0.114 | 0.86 | 0.328 | 1 | 0.289 | 0.144 | 1 | 1 | 0.974 | 0.206 |
| N#Cc1cnc(Nc2cc(NC[C@H]3CNCCO3)c(C(F)(F)F)cn2)cn1 [SRA737] + O=c1[nH]cc(F)c(=O)[nH]1 [5-Fluorouracil] (first compound max 10 µM, 7x7, partner max 20 µM) | 0.314 | 0.644 | 0.132 | 0.0841 | 0.881 | 0.82 | 0.236 | 0.633 | 0.691 | 0.926 | 0.448 | 0.347 | 0.515 | 0.414 | 0.318 | 0.601 | 0.8 | 1 | 0.896 | 0.934 |
| O=C(c1cc(Cc2n[nH]c(=O)c3ccccc23)ccc1F)N1CCN(C(=O)C2CC2)CC1 [Olaparib] + COc1nnc2ccc(N3CCC(c4ccc(OCCN5CCN(C)C(=O)[C@H]5C)cc4)CC3)nn12 [AZD5153] (first compound max 10 µM, 7x7, partner max 1 µM) | 0.346 | 0.591 | 0.273 | 0.255 | 0.791 | 0.944 | 0.74 | 0.291 | 0.392 | 0.438 | 0.637 | 0.455 | 0.195 | 0.666 | 0.319 | 0.489 | 0.992 | 0.983 | 0.911 | 0.535 |
| CS(=O)(=O)CCNCc1ccc(-c2ccc3ncnc(Nc4ccc(OCc5cccc(F)c5)c(Cl)c4)c3c2)o1 [Lapatinib] + NC1(c2ccc(-c3nc4ccn5c(=O)[nH]nc5c4cc3-c3ccccc3)cc2)CCC1 [MK-2206] (first compound max 10 µM, 7x7, partner max 10 µM) | 0.153 | 0.951 | 0.228 | 0.238 | 0.666 | 0.938 | 0.944 | 0.352 | 0.624 | 0.273 | 0.407 | 0.867 | 0.256 | 0.928 | 0.395 | 0.461 | 0.944 | 0.912 | 0.957 | 0.92 |
| CS(=O)(=O)CCNCc1ccc(-c2ccc3ncnc(Nc4ccc(OCc5cccc(F)c5)c(Cl)c4)c3c2)o1 [Lapatinib] + Cn1cnc2c(F)c(Nc3ccc(Br)cc3Cl)c(C(=O)NOCCO)cc21 [Selumetinib] (first compound max 10 µM, 7x7, partner max 10 µM) | 0.462 | 0.949 | 0.25 | 0.28 | 0.617 | 0.559 | 0.63 | 0.621 | 0.349 | 0.262 | 0.338 | 0.357 | 0.465 | 0.72 | 0.216 | 0.582 | 0.876 | 1 | 0.847 | 0.563 |

From the supplement of paper PMC11061612
